From US6806230B1, “Pyrimidine derivatives and herbicides containing them” (Kumiai Chemical Industry Co., Ltd., priority 1999, dated 2004)

tested on: monochoria (Mo); test: Test Example 1: herbicidal effects by flooded paddy field treatment; format: in vivo; settings: dose 100 gai/10a, examined on 21st day after treatment, index 0-5 per Table 44;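 note: 0-5 growth inhibition grade; 5 = over 90%; 4 = 70-90%; 3 = 50-70%; 2 = 30-50%; 1 = 10-30%; 0 = under 10%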
Summary of the method: (§1)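 Flooded paddy pre-emergence test: sowing into puddled soil under 3 cm water, then dropwise water-surface treatment the following day with diluted wettable powder at 100 g active ingredient per 10 ares. Greenhouse cultivation followed, and weeds were rated against a standard scale at 21 days.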

Compound	Herbicidal effect index, Mo
CC(C)C(c1cncnc1C(F)(F)F)N(C)C(=O)Cc1ccc(Br)cc1 (racemic) [Compound 1-41]	5
CCCC(c1cncnc1C(F)(F)F)N(C)C(=O)Cc1ccc(C)cc1 (racemic) [Compound 1-113]	5
CCOc1ccc(CC(=O)N(C)C(c2cncnc2C(F)(F)F)C(C)C)cc1 (racemic) [Compound 1-13]	5
CC(C(=O)N(C)C(c1cncnc1C(F)(F)F)C(C)C)c1ccc(Cl)cc1 (mixture of isomers) [Compound 1-71]	5
CC(C)C(c1cncnc1C(F)(F)F)N(C)C(=O)Cc1ccc(Cl)cc1 (racemic) [Compound 1-22]	5
COc1cc(CC(=O)N(C)C(c2cncnc2C(F)(F)F)C(C)C)ccc1Cl (racemic) [Compound 1-47]	5
CCN(C(=O)Cc1ccccc1)C(c1cncnc1C(F)(F)F)C(C)C (racemic) [Compound 1-26]	5
CC(C)C(c1cncnc1C(F)(F)F)N(C)C(=O)COc1ccc(F)cc1 (racemic) [Compound 1-127]	5
CC(C)C(c1cncnc1C(F)(F)F)N(C)C(=O)Cc1ccc(F)cc1 (racemic) [Compound 1-12]	5
CC(C)C(c1cncnc1C(F)(F)F)N(C)C(=O)Cc1cccc(Cl)c1 (racemic) [Compound 1-21]	5
Cc1ncncc1C(C(C)C)N(C)C(=O)Cc1ccccc1 (racemic) [Compound 1-87]	5

tested on: barnyard grass (Ec); test: Test Example 3: herbicidal effects by foliage treatment in upland field; format: in vivo; set-up: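 0-5 growth inhibition grade; 5 = over 90%; 4 = 70-90%; 3 = 50-70%; 2 = 30-50%; 1 = 10-30%; 0 = under 10%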; settings: dose 100 g active ingredient per 10 ares, examined on the 14th day after treatment
Summary of the method: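 Barnyard grass and green foxtail were grown in upland soil for 2 weeks in a greenhouse. A water-diluted wettable powder was sprayed over the foliage at 100 l per 10 ares, giving 100 g active ingredient per 10 ares. Herbicidal effect was scored on day 14 after treatment.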

Compound	Ec (herbicidal effects, index)
CC(C)C(c1cncnc1C(F)(F)F)N(C)C(=O)Cc1ccc(Br)cc1 (racemic) [Compound 1-41]	5
CCCC(c1cncnc1C(F)(F)F)N(C)C(=O)Cc1ccc(C)cc1 (racemic) [Compound 1-113]	4
CCOc1ccc(CC(=O)N(C)C(c2cncnc2C(F)(F)F)C(C)C)cc1 (racemic) [Compound 1-13]	5
CC(C)C(c1cncnc1C(F)(F)F)N(C)C(=O)Cc1ccc(Cl)cc1 (racemic) [Compound 1-22]	4
COc1cc(CC(=O)N(C)C(c2cncnc2C(F)(F)F)C(C)C)ccc1Cl (racemic) [Compound 1-47]	4
CCN(C(=O)Cc1ccccc1)C(c1cncnc1C(F)(F)F)C(C)C (racemic) [Compound 1-26]	4
CC(C)C(c1cncnc1C(F)(F)F)N(C)C(=O)COc1ccc(F)cc1 (racemic) [Compound 1-127]	4
CC(C)C(c1cncnc1C(F)(F)F)N(C)C(=O)Cc1ccc(F)cc1 (racemic) [Compound 1-12]	5
CC(C)C(c1cncnc1C(F)(F)F)N(C)C(=O)Cc1cccc(Cl)c1 (racemic) [Compound 1-21]	4
Cc1ncncc1C(C(C)C)N(C)C(=O)Cc1ccccc1 (racemic) [Compound 1-87]	4

tested on: corn (Ze); test: Test Example 5: selectivity for a crop plant by soil treatment in upland field; format: in vivo; set-up: scale not given here; settings: dose 25 gai/10a, 21st day after treatment, index per Table 44
Protocol: (§2) In a 80 cm^2 plastic pot, upland soil was filled, and seeds of barnyard grass (Ec), green foxtail (Se), soybean (G1), wheat (Tr) and corn (Ze) were sown and covered with soil. A wettable powder prepared in accordance with Formulation Example 1 was diluted with water and uniformly applied to the soil surface by a small size spray at a rate of 100 l per 10 ares so that the dose of the active ingredient would be 25 g per 10 ares. Thereafter, cultivation was carried out in a green house, and on the 21st day after the treatment, the herbicidal effects were examined in accordance with the standards of Table 44.

Compound	Ze (herbicidal effect index on crop)
CC(C(=O)N(C)C(c1cncnc1C(F)(F)F)C(C)C)c1ccc(Cl)cc1 (mixture of isomers) [Compound 1-71]	0

tested on: barnyard grass (Ec); test: as above; format: in vivo; set-up: scale not given here; settings: dose 25 gai/10a, 21st day after treatment, index per Table 44
Protocol: as §2

Compound	Ec (herbicidal effect index)
CC(C(=O)N(C)C(c1cncnc1C(F)(F)F)C(C)C)c1ccc(Cl)cc1 (mixture of isomers) [Compound 1-71]	5

tested on: wheat (Tr); test: as above; format: in vivo; set-up: scale not given here; settings: dose 25 gai/10a, 21st day after treatment, index per Table 44
Protocol: as §2

Compound	Tr (herbicidal effect index on crop)
CC(C(=O)N(C)C(c1cncnc1C(F)(F)F)C(C)C)c1ccc(Cl)cc1 (mixture of isomers) [Compound 1-71]	3

tested on: monochoria (Mo); test: Test Example 4: selectivity for a crop plant by flooded paddy field treatment; format: in vivo; set-up: scale not given here; settings: dose 25 g active ingredient per 10 ares, examined on the 21st day after treatment
Summary of the method: (§3)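 Steps: fill pot with paddy soil and puddle; sow weed seeds; transplant rice at second-leaf stage; flood to 3 cm. Next day, drip the water-diluted wettable powder onto the water (25 g a.i./10 ares). Grow in greenhouse and rate herbicidal effect on day 21.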

Compound	Mo (herbicidal effects, index)
CC(C)C(c1cncnc1C(F)(F)F)N(C)C(=O)Cc1ccc(Br)cc1 (racemic) [Compound 1-41]	5
CCOc1ccc(CC(=O)N(C)C(c2cncnc2C(F)(F)F)C(C)C)cc1 (racemic) [Compound 1-13]	5
CC(C)C(c1cncnc1C(F)(F)F)N(C)C(=O)Cc1ccc(Cl)cc1 (racemic) [Compound 1-22]	5
COc1cc(CC(=O)N(C)C(c2cncnc2C(F)(F)F)C(C)C)ccc1Cl (racemic) [Compound 1-47]	5
CCN(C(=O)Cc1ccccc1)C(c1cncnc1C(F)(F)F)C(C)C (racemic) [Compound 1-26]	5
CC(C)C(c1cncnc1C(F)(F)F)N(C)C(=O)Cc1cccc(Cl)c1 (racemic) [Compound 1-21]	5
Cc1ncncc1C(C(C)C)N(C)C(=O)Cc1ccccc1 (racemic) [Compound 1-87]	5

same assay, conditions: monochoria, dose 25 gai/10a, 21st day after treatment, index per Table 44

Compound	Mo (herbicidal effect index)
CCCC(c1cncnc1C(F)(F)F)N(C)C(=O)Cc1ccc(C)cc1 (racemic) [Compound 1-113]	5

tested on: rice (Or); test: as above; format: in vivo; set-up: scale not given here; settings: rice transplanted at second leaf stage, dose 25 g active ingredient per 10 ares, examined on the 21st day after treatment
Summary of the method: as §3

Or (effect on crop plant rice, index)	Compound
0	CC(C)C(c1cncnc1C(F)(F)F)N(C)C(=O)Cc1ccc(Br)cc1 (racemic) [Compound 1-41]
1	CCOc1ccc(CC(=O)N(C)C(c2cncnc2C(F)(F)F)C(C)C)cc1 (racemic) [Compound 1-13]
1	CC(C)C(c1cncnc1C(F)(F)F)N(C)C(=O)Cc1ccc(Cl)cc1 (racemic) [Compound 1-22]
0	COc1cc(CC(=O)N(C)C(c2cncnc2C(F)(F)F)C(C)C)ccc1Cl (racemic) [Compound 1-47]
1	CCN(C(=O)Cc1ccccc1)C(c1cncnc1C(F)(F)F)C(C)C (racemic) [Compound 1-26]
1	CC(C)C(c1cncnc1C(F)(F)F)N(C)C(=O)Cc1cccc(Cl)c1 (racemic) [Compound 1-21]
1	Cc1ncncc1C(C(C)C)N(C)C(=O)Cc1ccccc1 (racemic) [Compound 1-87]

same assay, conditions: rice transplanted at second leaf stage, dose 25 gai/10a, 21st day after treatment, index per Table 44

Compound	Or (herbicidal effect index on crop)
CCCC(c1cncnc1C(F)(F)F)N(C)C(=O)Cc1ccc(C)cc1 (racemic) [Compound 1-113]	0

tested on: barnyard grass (Eo); test: as above; format: in vivo; set-up: scale not given here; settings: barnyard grass, dose 25 gai/10a, 21st day after treatment, index per Table 44
Summary of the method: as §3

Compound	Eo (herbicidal effect index)
CCCC(c1cncnc1C(F)(F)F)N(C)C(=O)Cc1ccc(C)cc1 (racemic) [Compound 1-113]	5

same assay, conditions: dose 25 g active ingredient per 10 ares, examined on the 21st day after treatment

Compound	Eo (herbicidal effects, index)
CC(C)C(c1cncnc1C(F)(F)F)N(C)C(=O)Cc1ccc(Br)cc1 (racemic) [Compound 1-41]	5
CCOc1ccc(CC(=O)N(C)C(c2cncnc2C(F)(F)F)C(C)C)cc1 (racemic) [Compound 1-13]	5
CC(C)C(c1cncnc1C(F)(F)F)N(C)C(=O)Cc1ccc(Cl)cc1 (racemic) [Compound 1-22]	5
COc1cc(CC(=O)N(C)C(c2cncnc2C(F)(F)F)C(C)C)ccc1Cl (racemic) [Compound 1-47]	5
CCN(C(=O)Cc1ccccc1)C(c1cncnc1C(F)(F)F)C(C)C (racemic) [Compound 1-26]	5
CC(C)C(c1cncnc1C(F)(F)F)N(C)C(=O)Cc1cccc(Cl)c1 (racemic) [Compound 1-21]	5
Cc1ncncc1C(C(C)C)N(C)C(=O)Cc1ccccc1 (racemic) [Compound 1-87]	5

tested on: green foxtail (Se); test: Test Example 2: herbicidal effects by upland soil treatment; format: in vivo; settings: dose 100 g active ingredient per 10 ares, examined on the 21st day after treatment, standards of Table 44;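 note: 0-5 growth inhibition grade; 5 = over 90%; 4 = 70-90%; 3 = 50-70%; 2 = 30-50%; 1 = 10-30%; 0 = under 10%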
Summary of the method: (§4)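 Pre-emergence test: barnyard grass and green foxtail sown in upland soil, then soil surface sprayed with wettable-powder formulation at 100 g active ingredient per 10 ares (100 l per 10 ares). Grown in greenhouse; herbicidal effect scored on a rating scale 21 days after treatment.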

Compound	herbicidal effects, Se (green foxtail)
CC(C)C(c1cncnc1C(F)(F)F)N(C)C(=O)Cc1ccc(Br)cc1 (racemic) [Compound 1-41]	5
CCCC(c1cncnc1C(F)(F)F)N(C)C(=O)Cc1ccc(C)cc1 (racemic) [Compound 1-113]	4
CCOc1ccc(CC(=O)N(C)C(c2cncnc2C(F)(F)F)C(C)C)cc1 (racemic) [Compound 1-13]	5
CC(C(=O)N(C)C(c1cncnc1C(F)(F)F)C(C)C)c1ccc(Cl)cc1 (mixture of isomers) [Compound 1-71]	5
CC(C)C(c1cncnc1C(F)(F)F)N(C)C(=O)Cc1ccc(Cl)cc1 (racemic) [Compound 1-22]	5
COc1cc(CC(=O)N(C)C(c2cncnc2C(F)(F)F)C(C)C)ccc1Cl (racemic) [Compound 1-47]	5
CCN(C(=O)Cc1ccccc1)C(c1cncnc1C(F)(F)F)C(C)C (racemic) [Compound 1-26]	5
CC(C)C(c1cncnc1C(F)(F)F)N(C)C(=O)COc1ccc(F)cc1 (racemic) [Compound 1-127]	5
CC(C)C(c1cncnc1C(F)(F)F)N(C)C(=O)Cc1ccc(F)cc1 (racemic) [Compound 1-12]	5
CC(C)C(c1cncnc1C(F)(F)F)N(C)C(=O)Cc1cccc(Cl)c1 (racemic) [Compound 1-21]	5
Cc1ncncc1C(C(C)C)N(C)C(=O)Cc1ccccc1 (racemic) [Compound 1-87]	5

tested on: barnyard grass (Ec); test: as above; format: in vivo; set-up: scale not given here; settings: dose 100 g active ingredient per 10 ares, examined on the 21st day after treatment, standards of Table 44
Summary of the method: as §4

Compound	herbicidal effects, Ec (barnyard grass)
CC(C)C(c1cncnc1C(F)(F)F)N(C)C(=O)Cc1ccc(Br)cc1 (racemic) [Compound 1-41]	5
CCCC(c1cncnc1C(F)(F)F)N(C)C(=O)Cc1ccc(C)cc1 (racemic) [Compound 1-113]	5
CCOc1ccc(CC(=O)N(C)C(c2cncnc2C(F)(F)F)C(C)C)cc1 (racemic) [Compound 1-13]	5
CC(C(=O)N(C)C(c1cncnc1C(F)(F)F)C(C)C)c1ccc(Cl)cc1 (mixture of isomers) [Compound 1-71]	5
CC(C)C(c1cncnc1C(F)(F)F)N(C)C(=O)Cc1ccc(Cl)cc1 (racemic) [Compound 1-22]	5
COc1cc(CC(=O)N(C)C(c2cncnc2C(F)(F)F)C(C)C)ccc1Cl (racemic) [Compound 1-47]	5
CCN(C(=O)Cc1ccccc1)C(c1cncnc1C(F)(F)F)C(C)C (racemic) [Compound 1-26]	5
CC(C)C(c1cncnc1C(F)(F)F)N(C)C(=O)COc1ccc(F)cc1 (racemic) [Compound 1-127]	5
CC(C)C(c1cncnc1C(F)(F)F)N(C)C(=O)Cc1ccc(F)cc1 (racemic) [Compound 1-12]	5
CC(C)C(c1cncnc1C(F)(F)F)N(C)C(=O)Cc1cccc(Cl)c1 (racemic) [Compound 1-21]	5
Cc1ncncc1C(C(C)C)N(C)C(=O)Cc1ccccc1 (racemic) [Compound 1-87]	5

tested on: barnyard grass (Eo); test: Test Example 1: herbicidal effects by flooded paddy field treatment; format: in vivo; settings: dose 100 gai/10a, examined on 21st day after treatment, index 0-5 per Table 44;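 note: 0-5 growth inhibition grade; 5 = over 90%; 4 = 70-90%; 3 = 50-70%; 2 = 30-50%; 1 = 10-30%; 0 = under 10%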
Summary of the method: as §1

Compound	Herbicidal effect index, Eo
CC(C)C(c1cncnc1C(F)(F)F)N(C)C(=O)Cc1ccc(Br)cc1 (racemic) [Compound 1-41]	5
CCCC(c1cncnc1C(F)(F)F)N(C)C(=O)Cc1ccc(C)cc1 (racemic) [Compound 1-113]	5
CCOc1ccc(CC(=O)N(C)C(c2cncnc2C(F)(F)F)C(C)C)cc1 (racemic) [Compound 1-13]	5
CC(C(=O)N(C)C(c1cncnc1C(F)(F)F)C(C)C)c1ccc(Cl)cc1 (mixture of isomers) [Compound 1-71]	5
CC(C)C(c1cncnc1C(F)(F)F)N(C)C(=O)Cc1ccc(Cl)cc1 (racemic) [Compound 1-22]	5
COc1cc(CC(=O)N(C)C(c2cncnc2C(F)(F)F)C(C)C)ccc1Cl (racemic) [Compound 1-47]	5
CCN(C(=O)Cc1ccccc1)C(c1cncnc1C(F)(F)F)C(C)C (racemic) [Compound 1-26]	5
CC(C)C(c1cncnc1C(F)(F)F)N(C)C(=O)COc1ccc(F)cc1 (racemic) [Compound 1-127]	5
CC(C)C(c1cncnc1C(F)(F)F)N(C)C(=O)Cc1ccc(F)cc1 (racemic) [Compound 1-12]	5
CC(C)C(c1cncnc1C(F)(F)F)N(C)C(=O)Cc1cccc(Cl)c1 (racemic) [Compound 1-21]	5
Cc1ncncc1C(C(C)C)N(C)C(=O)Cc1ccccc1 (racemic) [Compound 1-87]	5
